Results as given in patent US12570661B2, “Isoform-specific aldehyde dehydrogenase inhibitors” (The Board of Trustees of the Leland Stanford Junior …, priority 2020, dated 2026).

How the values were obtained:
[1] = molecular target: T1, ALDH1A3 (Homo sapiens, UniProt P47895); assay: ALDH1A3 enzyme kinetics assay; type: biochemical; conditions: enzyme kinetics assays, 1-μM dose
T1 construct: made in house
T1 sequence (P47895 1-512): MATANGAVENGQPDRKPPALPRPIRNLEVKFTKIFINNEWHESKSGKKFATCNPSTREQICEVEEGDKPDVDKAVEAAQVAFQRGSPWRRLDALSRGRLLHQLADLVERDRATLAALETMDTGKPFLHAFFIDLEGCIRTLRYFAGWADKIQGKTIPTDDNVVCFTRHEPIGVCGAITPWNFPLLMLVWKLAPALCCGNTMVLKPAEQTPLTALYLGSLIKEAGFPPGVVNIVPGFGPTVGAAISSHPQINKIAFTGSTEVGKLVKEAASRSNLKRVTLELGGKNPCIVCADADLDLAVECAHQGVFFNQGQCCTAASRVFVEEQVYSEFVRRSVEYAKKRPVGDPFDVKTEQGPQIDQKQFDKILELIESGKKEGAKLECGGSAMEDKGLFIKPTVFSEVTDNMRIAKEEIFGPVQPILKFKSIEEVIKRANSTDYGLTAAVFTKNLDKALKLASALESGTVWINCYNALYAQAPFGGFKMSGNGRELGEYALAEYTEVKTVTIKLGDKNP
Experimental: (§1) Cloning, expression, and purification of human recombinant ALDH1A1, ALDH1A3, ALDH2, ALDH3A1, ALDH3A2, ALDH4A1, ALDH5A1 and ALDH7A1 isozymes were conducted as described previously (Chen, C. H. et al. (2015) Proc. Natl. Acad. Sci. U.S.A. 112, 3074-3079). Human ALDH1A2 (Origene, SC109995) and ALDH1B1 (T. Hurley, Indiana University) plasmids were cloned into the pET-15b expression vector (Novagen, 69661-3) containing an N-terminal hexahistidine tag. The mitochondria-targeting sequence of ALDH1B1 was also removed. […] The protein concentration for each fraction was measured (500 μL elution volume was collected as one fraction and was immediately mixed with 500 μL glycerol. The protein concentration for each fraction was measured (600 nm Protein Assay Reagent; Thermo Fisher Scientific), and protein-containing fractions were diluted with an equal volume of glycerol and stored at −80° C. Samples from each step were also collected for SDS-PAGE gel analysis. For ALDH1B1 protein co-expression with chaperones, pET-15b-ALDH1B1 and GroEL/GroES (Addgene, plasmid pBB541) plasmids were co-transformed into competent BL21 E. coli cells, which were subsequently grown in 1 L of Luria-Bertani medium containing 100 μg/mL ampicillin and 50 μg/mL spectinomycin at 37° C. […]

[2] = molecular target: T2, ALDH1B1 (Homo sapiens, UniProt P30837); assay: ALDH1B1 enzyme kinetics assay (NADH fluorescence, acetaldehyde substrate); type: biochemical; design: made in house; host or cells: E. coli BL21 (optionally co-expressed with GroEL/GroES); conditions: enzyme kinetics assays against ALDH isoforms
T2 sequence (P30837 18-517): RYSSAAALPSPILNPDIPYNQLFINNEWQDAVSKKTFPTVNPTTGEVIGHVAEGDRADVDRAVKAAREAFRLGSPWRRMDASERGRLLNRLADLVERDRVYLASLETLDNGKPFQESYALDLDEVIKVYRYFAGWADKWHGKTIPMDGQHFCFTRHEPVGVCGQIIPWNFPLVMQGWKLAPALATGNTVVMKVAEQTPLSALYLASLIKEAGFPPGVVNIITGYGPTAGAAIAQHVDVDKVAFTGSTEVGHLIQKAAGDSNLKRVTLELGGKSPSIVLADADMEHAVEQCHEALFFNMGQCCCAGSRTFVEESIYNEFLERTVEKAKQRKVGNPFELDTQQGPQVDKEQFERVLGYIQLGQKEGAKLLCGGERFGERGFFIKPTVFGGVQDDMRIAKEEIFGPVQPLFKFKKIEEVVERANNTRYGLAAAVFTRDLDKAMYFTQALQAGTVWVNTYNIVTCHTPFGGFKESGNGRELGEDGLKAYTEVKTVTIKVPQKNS
Experimental: Cloning, expression, and purification of human recombinant ALDH1A1, ALDH1A3, ALDH2, ALDH3A1, ALDH3A2, ALDH4A1, ALDH5A1 and ALDH7A1 isozymes were conducted as described previously (Chen, C. H. et al. (2015) Proc. Natl. Acad. Sci. U.S.A. 112, 3074-3079). Human ALDH1A2 (Origene, SC109995) and ALDH1B1 (T. Hurley, Indiana University) plasmids were cloned into the pET-15b expression vector (Novagen, 69661-3) containing an N-terminal hexahistidine tag. The mitochondria-targeting sequence of ALDH1B1 was also removed. For protein expression without chaperones, the pET-15b based plasmids were transformed into competent BL21 E. coli cells, which were subsequently grown in 1 L of Luria-Bertani medium containing 100 μg/mL ampicillin at 37° C. Once the OD600 value reached 0.6, the culture was transferred to 16° C. and 0.5 mM isopropyl β-d-1-thiogalactopyranoside was introduced to induce protein expression overnight. The bacteria were then pelleted by centrifugation (3000×g, 4° C. for 30 rain) and harvested. 40 mL BugBuster Master Mix buffer (MilliporeSigrna) containing a protease inhibitor cocktail (cOmplete; Roche) was added, and the cells were lysed by mechanically rolling the suspension at room temperature for 25 min. The lysate was centrifuged (16000×g, 4° C. for 30 min), and the soluble fraction was collected and mixed with 2 mL of Ni-NTA Superflow resin (Qiagen). After the mixture was avowed to rock at 4° C. for 1 h, it was used to create a 10-mL gravity column, which was sequentially treated with 40 mL of wash buffer 1 (20 mM sodium phosphate, 500 mM NaCl, 1 mM DTT, 20 mM imidazole, 5% glycerol, pH 7.4) and 25 mL of wash buffer 2 (20 mM sodium phosphate, 500 mM NaCl, 1 mM DTT, 40 mM imidazole, 5% glycerol, pH 7.4). The hexahistidine-tagged protein was then recovered by treated the column with 5 mL elution buffer (20 mM sodium phosphate, 500 mM NaCl, 1 mM DTT, 400 mM imidazole, 5% glycerol, pH 7.4) and collecting 500-μL fractions. The protein concentration for each fraction was measured (500 μL elution volume was collected as one fraction and was immediately mixed with 500 μL glycerol. The protein concentration for each fraction was measured (600 nm Protein Assay Reagent; Thermo Fisher Scientific), and protein-containing fractions were diluted with an equal volume of glycerol and stored at −80° C. Samples from each step were also collected for SDS-PAGE gel analysis. For ALDH1B1 protein co-expression with chaperones, pET-15b-ALDH1B1 and GroEL/GroES (Addgene, plasmid pBB541) plasmids were co-transformed into competent BL21 E. coli cells, which were subsequently grown in 1 L of Luria-Bertani medium containing 100 μg/mL ampicillin and 50 μg/mL spectinomycin at 37° C. The hexahistidine-tagged ALDH1B1 protein was then expressed and purified as described above.
To evaluate compound activities against ALDH isoforms, reaction mixtures consisting of enzyme assay buffer (100 mM sodium phosphate, 1 mM MgCl2, pH 8.0) and 0.1% DMSO, 1 mM β-mercaptoethanol, 1 mM NAD^+, and the bacterially expressed protein were prepared in white opaque 96-well assay plates (100 μL/well, flat-bottom and non-treated; Corning Costar). 5 μg/mL ALDH enzyme was used for single-dose (1, 10, 50 μM) compound test, and 1 μg/mL ALDH enzyme was used for IC50s determination. Acetaldehyde was then added to each well to achieve an initial substrate concentration of 1 mM, and the resulting enzymatic activity was measured based on NADH fluorescence. The fluorescence signal was read over the course of 10 min on a SpectraMax M2e microplate reader (340-nm excitation and 460-nm emission; Molecular Devices) operated by SoftMax Pro software. Compound activities were normalized to a DMSO control, and dose-response inhibition curves were fitted with four-parameter non-linear regression using Prism software. […]

[3] = molecular target: T3, ALDH2 (Homo sapiens, UniProt P05091); assay: ALDH2 enzyme kinetics assay; type: biochemical; conditions: 50-μM compound concentration
T3 construct: made in house
T3 sequence (P05091 18-517): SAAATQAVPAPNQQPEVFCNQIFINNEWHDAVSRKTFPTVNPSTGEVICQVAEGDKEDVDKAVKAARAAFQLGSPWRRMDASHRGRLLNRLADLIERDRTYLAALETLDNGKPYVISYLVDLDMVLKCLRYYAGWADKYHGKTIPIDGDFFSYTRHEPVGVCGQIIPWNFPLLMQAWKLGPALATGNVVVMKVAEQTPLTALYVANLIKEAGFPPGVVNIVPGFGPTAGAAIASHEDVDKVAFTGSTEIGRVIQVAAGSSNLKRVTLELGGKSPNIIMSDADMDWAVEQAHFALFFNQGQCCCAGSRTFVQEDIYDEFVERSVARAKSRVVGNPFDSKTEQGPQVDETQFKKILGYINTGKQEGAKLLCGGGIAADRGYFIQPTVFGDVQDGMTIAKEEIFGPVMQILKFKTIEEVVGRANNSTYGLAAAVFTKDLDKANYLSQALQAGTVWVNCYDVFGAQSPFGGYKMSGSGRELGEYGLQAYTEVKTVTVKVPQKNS
Experimental: as §1

[4] = system: NIH-3T3 cells; assay: Seahorse oxygen-consumption-rate assay (NIH3T3); type: cell-based, murine; conditions: Mus musculus
[5] = system: SW480 cells (adherent); assay: Cell viability assay, adherent SW480 cultures; type: cell-based, human; conditions: Homo sapiens, SW480, 168 h; adherent culture, 7 days
Experimental: SW480 or HCT116 cells were seeded into regular or Matrigel-coated 96-well plates at a density of 1000 cells/well. The cells were cultured in the corresponding adherent or spheroid culture medium (200 μL/well) containing the designated compounds or an equivalent amount of DMSO vehicle. Each culture was maintained for 7 days, and then cell viabilities were measured using a CellTiter-Glo 3D Cell Viability Assay kit (Promega). Briefly, 100 μL of the culture medium was removed from each well and replaced with 100 μL 3D Cell Assay reagent. The cells in each well were next homogenized by vigorous pipetting, and the plate was incubated for 10 min at room temperature to stabilize the chemiluminescent signal. A 150-μL aliquot from each well was then transferred into a white opaque 96-well assay plate (flat-bottom and non-treated; Corning Costar) and luminescence intensities were measured with a Veritas microplate luminometer (Turner BioSystems).

[6] = system: 5-FU-resistant SW480 cells; assay: Spheroid growth of 5-FU-resistant versus parental SW480 cells; type: cell-based, human; conditions: spheroid culture
Experimental: The parental SW480 cells were cultured in RPMI-1640 medium containing 10% FBS, 100 U/mL penicillin, 100 μg/mL streptomycin, and 1 μM 5-FU for two weeks. The 5-FU concentration in the culture medium was then increased to 5 μM and after another two weeks raised further to 10 μM. The resulting 5-FU-resistant SW480 cells were maintained in culture medium with 10 μM 5-FU.
To prepare Matrigel-coated culture plates, 96-well and 24-well plates were placed on ice and coated with 25 μL or 300 μL, respectively, of Matrigel matrix (Corning, LDEV-free) that had been thawed overnight at 4° C. The plates were then placed in a 37° C. incubator for 30 min to allow the Matrigel to solidify. […]
SW480 or HCT116 cells were seeded into regular or Matrigel-coated 96-well plates at a density of 1000 cells/well. […] Each culture was maintained for 7 days, and then cell viabilities were measured using a CellTiter-Glo 3D Cell Viability Assay kit (Promega). […] A 150-μL aliquot from each well was then transferred into a white opaque 96-well assay plate (flat-bottom and non-treated; Corning Costar) and luminescence intensities were measured with a Veritas microplate luminometer (Turner BioSystems).

COc1ccccc1-n1cc(-c2ccc(-c3ccc([N+](=O)[O-])cc3)cc2)[n+]2c1CCCCC2.[Br-] [Imidazolium 10]
ALDH1A3 inhibition / isoform selectivity (in words) [1]: inhibitor of both ALDH1B1 and ALDH1A3
ALDH1B1 inhibition / isoform selectivity (in words) [2]: inhibitor of both ALDH1B1 and ALDH1A3

C#CCOc1ccc(-n2cc(-c3ccc(N=[N+]=[N-])cc3)[n+]3c2CCCCC3)cc1 [Imidazolium 3]
inhibition of ALDH2 activity [3]: only partially suppressed

CCOc1ccc(-n2cc(-c3ccc(-c4ccc(C(=O)OC)cc4)cc3)[n+]3c2CCCCC3)cc1 [Imidazolium 46]
ALDH1A3 inhibition / isoform selectivity (in words) [1]: ALDH1A3-specific inhibitor

c1ccc(-c2ccc(-c3cn(C4CCCCC4)c4[n+]3CCCCC4)cc2)cc1 [Imidazolium 53]
IC50 [4]: 170 nM
GI50 [5]: 820 nM

O=c1[nH]cc(F)c(=O)[nH]1 [Compound 5-FU, 5-fluorouracil]
loss of sensitivity of 5-FU-resistant SW480 line versus parental line [6]: 50 fold
